Measured values published in patent US7262212B2, “2,3-dihydro-6-nitroimidazo[2,1-b]oxazoles” (Otsuka Pharmaceutical Co., Ltd., priority 2002, dated 2007).

Row | SMILES | melting point
1 | CC1(CCCN2CCN(c3nc4ccccc4o3)CC2)Cn2cc([N+](=O)[O-])nc2O1 (stereo not shown) | 172 to 174.4 °C
2 | CC1(CCN2CCN(C(C)(C)C)C(=O)C2)Cn2cc([N+](=O)[O-])nc2O1 (stereo not shown) | 153 to 154 °C
3 | C[C@]1(CN2CCN(C3CCN(C(=O)c4ccc(Cl)cc4)CC3)CC2)Cn2cc([N+](=O)[O-])nc2O1 | 218 to 220 °C
4 | CC1(CN2CCN(C(=O)Cc3ccccc3)CC2)Cn2cc([N+](=O)[O-])nc2O1 (stereo not shown) | 175.2 to 175.9 °C
5 | C[C@]1(CN2CCN(C(=O)N3C=CC(c4ccc(Cl)cc4)=CC3)CC2)Cn2cc([N+](=O)[O-])nc2O1 | 156 to 159 °C
6 | CC1(CN2CCN(C(=O)NC3CCCCC3)CC2)Cn2cc([N+](=O)[O-])nc2O1 (stereo not shown) | 216.5 to 218.5 °C
7 | CCCCCCCCOC(=O)N1CCN(CC2(C)Cn3cc([N+](=O)[O-])nc3O2)CC1 (stereo not shown) | 138 to 139.4 °C
8 | Cn1c(=O)n(CC2(C)Cn3cc([N+](=O)[O-])nc3O2)c2ccc(Cl)cc21 (stereo not shown) | 261.3 to 263.3 °C
9 | CC1(CSc2nnnn2-c2ccccc2)Cn2cc([N+](=O)[O-])nc2O1 (stereo not shown) | 140 to 147 °C
10 | CC(C)NC(=O)N1CCN(CC2(C)Cn3cc([N+](=O)[O-])nc3O2)CC1 (stereo not shown) | 175 to 176.3 °C
11 | CN(CC1(C)Cn2cc([N+](=O)[O-])nc2O1)C(=O)OCc1ccc(F)cc1 (stereo not shown) | 168.9 to 169.9 °C
12 | CC1(CNC(=O)OCc2ccc(F)cc2)Cn2cc([N+](=O)[O-])nc2O1 (stereo not shown) | 200.4 to 202.1 °C
13 | C[C@]1(CN2CCN(C3CCN(Cc4ccc(Cl)cc4)CC3)CC2)Cn2cc([N+](=O)[O-])nc2O1 | 168 to 169 °C
14 | CC1(CCN2CCN(c3ccccc3)C(=O)C2)Cn2cc([N+](=O)[O-])nc2O1 (stereo not shown) | 199 to 202 °C (dec.)

Other lines, results leading:

Row | melting point | SMILES
15 | 137 to 138 °C | C[C@]1(CN2CCN(Cc3ccc(OC(F)(F)F)cc3)CC2)Cn2cc([N+](=O)[O-])nc2O1
16 | 147.2 to 149.2 °C | CN(C(=O)OCc1ccc(Cl)cc1)C1CCN(CC2(C)Cn3cc([N+](=O)[O-])nc3O2)CC1 (stereo not shown)
17 | 224 to 225 °C | O=[N+]([O-])c1cn2c(n1)O[C@H](CN1CCN(Cc3ccc(-c4ccccc4)cc3)CC1)C2
18 | 138.7 to 139.9 °C | C[C@]1(CN2CCC(c3ccc(C(F)(F)F)cc3)CC2)Cn2cc([N+](=O)[O-])nc2O1
19 | 92 to 95 °C | CN(CCCOc1ccc(OC(F)(F)F)cc1)C[C@@]1(C)Cn2cc([N+](=O)[O-])nc2O1
20 | 189.2 to 190.9 °C | CC1(CN2CCN(N=Cc3ccc(OC(F)(F)F)cc3)CC2)Cn2cc([N+](=O)[O-])nc2O1 (stereo not shown)
21 | 92.5 to 94 °C | C[C@]1(CN2CCC(OCCc3ccc(Cl)cc3)CC2)Cn2cc([N+](=O)[O-])nc2O1
22 | 226 to 228 °C | C[C@]1(CN2CCC(N3CCN(c4ccc(Cl)cc4)CC3)CC2)Cn2cc([N+](=O)[O-])nc2O1
23 | 105 to 107 °C | CC1(CN2CCN(C(=O)OCc3ccc(C(=O)c4ccccc4)cc3)CC2)Cn2cc([N+](=O)[O-])nc2O1 (stereo not shown)
24 | 173.2 to 177.3 °C | O=[N+]([O-])c1cn2c(n1)OC(COc1ccc(N3CCC(Oc4ccc(OC(F)(F)F)cc4)CC3)cc1)C2 (stereo not shown)
25 | 176.5 to 178 °C | C[C@]1(COc2ccc(OC(F)(F)F)cc2)Cn2cc([N+](=O)[O-])nc2O1
26 | 144 to 145 °C | CN(C(=O)OC[C@@]1(C)Cn2cc([N+](=O)[O-])nc2O1)c1ccc(OC(F)(F)F)cc1
27 | 193 to 194 °C | C[C@]1(CN2CCC(N3CCN(c4ccc(OC(F)(F)F)cc4)CC3)CC2)Cn2cc([N+](=O)[O-])nc2O1
28 | 140.6 to 142.8 °C | C[C@]1(CN2CCC(OCC=Cc3ccc(Cl)cc3)CC2)Cn2cc([N+](=O)[O-])nc2O1
29 | 192.1 to 195.3 °C | C[C@]1(CN2CCN(Nc3ccc(C(F)(F)F)cc3)CC2)Cn2cc([N+](=O)[O-])nc2O1
30 | 221 to 223 °C | O=C(OCc1ccc(C(F)(F)F)cc1)N1CCN(C(=O)N2CCC3(CC2)Cn2cc([N+](=O)[O-])nc2O3)CC1
31 | 125 to 125.5 °C | O=C(OCc1ccc(C(F)(F)F)cc1)N1CCN(C[C@H]2Cn3cc([N+](=O)[O-])nc3O2)CC1
